{"source": "patent US10683273B2", "about": "“Compounds as DNA probes, methods and applications thereof” (JAWAHARLAL NEHRU CENTRE FOR ADVANCED SCIENTIFIC RESEARCH, priority 2015, dated 2020)", "key": {"[1]": {"system": "RNA", "test": "Fluorescence response with RNA", "assay_type": "binding", "conditions": "QCy-DT 2 μM, RNA 4 μM, Tris-HCl", "experimental": "All the chemicals, reagents, single-stranded oligos (dA20, dT20, dG20, dC20), self-complementary oligos {d(ATAT)5, (D1)mix, Drew-AT, Calf-Thymus DNA (CT-DNA), (DM1, DM2, DM3, DM4, DM5, DM6 and DM7)}, RNA, were purchased from Sigma-Aldrich. ^1H and ^13C NMR spectra were recorded on a Bruker AV-400 MHz spectrometer with chemical shifts reported as parts per million (ppm) (in DMSO-d6, tetramethylsilane as an internal standard) at 20° C. UV-vis absorption and emission spectra were measured in quartz cuvettes of 1 cm path length. High resolution mass spectra (HRMS) were obtained on Agilent Technologies 6538 UHD Accurate-Mass Q-TOF LC/MS spectrometer. All biophysical studies (UV-vis, fluorescence and Cirular dichroism) are carried out at the concentration 0-5 μM of probe, volume=500 μL, temperature=25° C. and time of incubation=2 minutes. […]\nThe UV-vis absorption and emission spectra are recorded on Agilent Technologies Cary series UV-vis-NIR absorbance and Cary eclipse fluorescence spectrophotometers, respectively. […] Absorption is monitored at 260 nm with regular 5° C. intervals. Melting temperatures (Tm) of DNA samples are calculated from the first derivatives of the absorption vs. temperature curves (thermal denaturation or melting curves) obtained by monitoring at 260 nm. […]"}, "[2]": {"system": "MCF-7 cells", "test": "Photostability assay by confocal fluorescence microscopy", "assay_type": "cell-based", "conditions": "2 μM", "experimental": "MCF-7 Cells are propagated on 20 mm cover slips in a 6-well plate in DMEM medium supplemented with 10% fetal bovine serum at about 37° C. in a humidified atmosphere containing 5% CO2 till 80% confluency is achieved. Cells are incubated for a duration of about 60 min with probe QCy-DT (resuspended in Mili-Q water) at 2 μM concentration in a humidified CO2 incubator at about 37° C. Following treatment, the photostability of QCy-DT is measured by continuous scanning using OLYMPUS FV1000 confocal fluorescence microscope, under 568 nm line of an Argon ion laser for different time durations of about 10 sec, 120 sec and 300 sec. Olympus Fluoview software is used to quantitatively investigate the intensity of signals of QCy-DT at zero time points and after photo bleaching. The data is plotted with mean and standard error."}, "[3]": {"system": "Drew-AT", "test": "Switch-on NIR-fluorescence enhancement with DNA", "assay_type": "binding", "experimental": "(§1) All the chemicals, reagents, single-stranded oligos (dA20, dT20, dG20, dC20), self-complementary oligos {d(ATAT)5, (D1)mix, Drew-AT, Calf-Thymus DNA (CT-DNA), (DM1, DM2, DM3, DM4, DM5, DM6 and DM7)}, RNA, were purchased from Sigma-Aldrich. ^1H and ^13C NMR spectra were recorded on a Bruker AV-400 MHz spectrometer with chemical shifts reported as parts per million (ppm) (in DMSO-d6, tetramethylsilane as an internal standard) at 20° C. UV-vis absorption and emission spectra were measured in quartz cuvettes of 1 cm path length. High resolution mass spectra (HRMS) were obtained on Agilent Technologies 6538 UHD Accurate-Mass Q-TOF LC/MS spectrometer. All biophysical studies (UV-vis, fluorescence and Cirular dichroism) are carried out at the concentration 0-5 μM of probe, volume=500 μL, temperature=25° C. and time of incubation=2 minutes. HeLa cells and MCF7 cells used in the biological studies are obtained from “Molecular reproduction, development and genetics lab, Indian institute of science, Bangalore, India”\n(§2) Stock solutions of QCy-DT are prepared in double-distilled (dd) water in the order of 10^−3 M and stored at about −10° C. DNA stock solutions are prepared by dissolving oligo samples in double-distilled (dd) water in the order of 10^−4 M. Solutions of DNA duplexes are prepared in Tris-HCl (100 mM, pH=7.4) buffer solution by mixing complementary DNA strands in equimolar concentration. This solution is then subjected to annealing by heating up to about 85° C. for about 15 minutes, subsequently cooled to room temperature for about 7 hours and stored in the refrigerator (about 4° C.) for about 4 hours.\n(§3) The UV-vis absorption and emission spectra are recorded on Agilent Technologies Cary series UV-vis-NIR absorbance and Cary eclipse fluorescence spectrophotometers, respectively. Thermal denaturation (UV-melting) studies are carried out on Cary 5000 UV-vis-NIR spectrophotometer equipped with Cary temperature controller in the range of 10° C. to 90° C. with a ramp rate of 1° C./min. The variable temperature/wavelength mode is used. Absorption is monitored at 260 nm with regular 5° C. intervals. Melting temperatures (Tm) of DNA samples are calculated from the first derivatives of the absorption vs. temperature curves (thermal denaturation or melting curves) obtained by monitoring at 260 nm.\n(§4) For this, poly AT-duplexes such as (A-T)20, self-complementary d(ATAT)5, Drew-AT (14 base pair self-complementary sequence with 6AT-base pairs in central core), poly GC-duplex (G-C)20, (D1)mix, which is a 16 base pair long self-complementary duplex and CT-DNA as mixed AT/GC duplexes is chosen (Table 2). […] QCy-DT experience hydrophobic environment upon binding to minor groove of AT-rich duplex DNA which prevents aromatic π-stacking interactions with base pairs and other molecules of the probe that led to the hyperchromicity in the absorbance maximum of QCy-DT. […] Further, the absorption and emission properties of QCy-DT in the presence of poly AT- and GC-duplexes are studied. […] Further, we also studied the emission behavior of QCy-DT in presence of CT-DNA, (D1)mix, single-stranded (ss) DNAs and RNA. […] To ascertain the switch-on behavior of QCy-DT in the presence of AT-rich DNA duplex, viscosity measurements are performed by increasing the glycerol content in buffer solution. […] Consequently, the observed strong fluorescence enhancement in the presence of AT-rich DNA duplexes is the result of restriction of intramolecular rotation of probe QCy-DT in the constrained environments of DNA, which also facilitates the desolvation (water molecules) around QCy-DT in the hydrophobic environment of DNA duplex (FIG. 1c)."}, "[4]": {"system": "(G-C)20", "test": "Switch-on NIR-fluorescence enhancement with DNA", "assay_type": "binding", "conditions": "QCy-DT 2 μM, (G-C)20 4 μM, Tris-HCl", "experimental": "as §1, §2, §3, §4"}, "[5]": {"system": "single-stranded (ss) DNAs", "test": "Switch-on NIR-fluorescence enhancement with DNA", "assay_type": "binding", "conditions": "ssDNAs", "experimental": "as §1, §2, §3, §4"}, "[6]": {"system": "(D1)mix", "test": "Switch-on NIR-fluorescence enhancement with DNA", "assay_type": "binding", "experimental": "as §1, §2, §3, §4"}, "[7]": {"system": "(A-T)20", "test": "Switch-on NIR-fluorescence enhancement with DNA", "assay_type": "binding", "experimental": "as §1, §2, §3, §4"}, "[8]": {"system": "DM2 (5′-ATTA-3′)", "test": "Sequence-specific fluorescence enhancement, variable (A/T)4 core", "assay_type": "binding", "conditions": "QCy-DT 2 μM, DM2 4 μM", "experimental": "as §1, §2, §3\nAlmost about ˜4-folds difference in fluorescence enhancement of QCy-DT in the presence of (A-T)20 compared to self-complementary, alternative AT-base pair containing d(ATAT)5 duplex is observed, although both contain total 20 AT base pairs (FIG. 3 and FIG. 12a). […] There are no NIR-fluorescence probes that sequence-specifically recognize the minor groove of AT-rich DNA. […] Further, QCy-DT detects all AT-rich sequences by showing varied fluorescence/sensitivity. […]"}}, "data": [{"smiles": "C[n+]1c(/C=C/c2ccc(O)c(/C=C/c3sc4ccccc4[n+]3C)c2)sc2ccccc21", "note": "[QCy-DT, quinone cyanine-dithiazole]", "values": [{"measurement": "fluorescence response", "setting": "[1]", "value": "very weak response"}, {"measurement": "remainder fluorescence intensity", "setting": "[2]; MCF-7, 120-second argon ion laser excitation at 568 nm", "value": "~80", "unit": "%"}, {"measurement": "fluorescent signal intensity", "setting": "[2]; MCF-7, 300 sec excitation at 568 nm", "value": "~50", "unit": "%"}, {"measurement": "fluorescence enhancement", "setting": "[3]; QCy-DT 2 μM, Drew-AT 4 μM, λem=650 nm, vs probe alone", "value": "~200", "unit": "fold"}, {"measurement": "fluorescence enhancement with 5′-AAATTT-3′ core, higher than 5′-AATT-3′ core", "setting": "[3]; ratio 5′-AAATTT-3′ / 5′-AATT-3′", "value": "~4", "unit": "fold"}, {"measurement": "fluorescence enhancement", "setting": "[4]", "value": 8, "unit": "fold"}, {"measurement": "fluorescence enhancement", "setting": "[5]", "value": "~2", "unit": "fold"}, {"measurement": "fluorescence enhancement", "setting": "[6]", "value": "~55", "unit": "fold"}, {"measurement": "fluorescence enhancement", "setting": "[7]; QCy-DT 2 μM, (A-T)20 4 μM, Tris-HCl", "value": "~250", "unit": "fold"}, {"measurement": "difference in fluorescence enhancement, (A-T)20 compared to d(ATAT)5", "setting": "[7]; ratio (A-T)20 / d(ATAT)5", "value": "~4", "unit": "fold"}, {"measurement": "fluorescence enhancement", "setting": "[8]", "value": "~15", "unit": "fold"}]}]}
